Reference: US7579343B2, “Pyrrolo-thiazines and processes for the preparation and use thereof” (Board of Trustees of Michigan State University, priority 2005, dated 2009)

Experiments:
β-ribosidase [1] = assay: β-ribosidase inhibition assay with DHF-riboside substrate, whole cells; assay type: cell-based, Salmonella sp.35664
Procedure: (§1) The hydrolysis of β-riboside under catalysis by β-ribosidases features an oxocarbenium ion transition state, similar to nucleoside hydrolases, nucleoside phosphorylases and related enzymes. The β-ribosidase inhibitory properties of 6, 7 and 8 were evaluated using 3′,4′-dihydroxyflavone-4′-β-D-ribofuranoside 16 (DHF-riboside) as the substrate and bacterial lysates or whole cells as the source of β-ribosidase. The hydrolysis of this chromogenic substrate can be catalyzed by β-ribosidases to release 3′,4′-dihydroxyflavone, which forms a highly colored chelate with iron.^23
(§2) Compounds 6-8 were evaluated for their ability to inhibit the action of β-ribosidases produced by Gram negative bacteria. There are no commercially available β-ribosidases and it is the usual course to use intrinsic ribosidase activities from actual bacteria or bacterial cell lysates. Ribosidase inhibition assays were performed using Salmonella sp.35664 to produce β-ribosidase enzymes. Both whole cells and lysed bacteria were tested. Ribosidase activity is indicated by a purple color formed by complexation of the freed phenol with ferric ions. FIGS. 7A and 7B are (7A) absorbance of the assay mixture produced by a lysate of Salmonella sp.35664 with 3′,4′-dihydroxyflavone-4′-β-D-ribofuranoside in the presence of 6 in concentrations from 0 to 15 μg/μL over a 24 hour period. (7B) Absorbance of the assay mixture in the presence of 7. Note that the differences in inhibition between the two are marginal at higher inhibitor concentrations. Note also that in both cases there is a threshold value of 0.9 μg/μL for the inhibitor concentration over which no inhibition is observed. The more inhibition of the enzyme, the less cleavage of the substrate.
In the case of compound 7, no inhibition is also observed for the 3.8 μg/μL inhibitor concentration. There are only minor differences for the inhibitory properties of the two compounds at the higher concentrations.
(§3) Inhibitory potency was determined by spectrophotometrically measuring the residual hydrolytic activities of the bacterial produced β-ribosidase 2. The bacterium used to produce β-ribosidase was Salmonella sp.35664, both whole cell and lysed strains. 3′,4′-Dihydroxyflavone-4′-β-D-ribofuranoside 15 (DHF-riboside) was used as substrate. The assay was performed in a PBS buffer at pH 7.0, 37° C. Serial dilutions were made of the inhibitors to a final concentration of 0.2μg/μL to 15μg/μL in each assay solution. The strain was grown to mid exponential phase and removed from the media and rediluted in PBS buffer. Inhibition studies were performed by adding each strain to the respective buffer solutions along with DHF-riboside, ferric ammonium citrate and inhibitors. For compound 6 and 7, 10% DMSO solution was used to increase the solubility. The solutions were incubated at 37° C. and the absorbance of the complex formed between released 3′,4′-dihydroxyflavone and iron was determined at 387 nm at time 15 min, 30 min, 45 min, 60 min, 75 min, 90 min, 105 min, 2 hours, 2.5 hours, 3.0. hours, 4.0. hours, 4.5 hours, 5 hours, 20 hours, and 24 hours.

β-ribosidase [2] = assay: β-ribosidase inhibition assay with DHF-riboside substrate, bacterial lysate; assay type: biochemical, Salmonella sp.35664; conditions: for threshold value for the inhibitor concentration over which no inhibition is observed: lysate of Salmonella sp.35664, DHF-riboside, over a 24 hour period
Procedure: as §1, §2, §3

E. faecalis 29212 = assay: antibacterial activity, standard MIC testing procedure; assay type: cell-based
Procedure: (§4) It was assayed according to the standard MIC testing procedure for antimicrobials.

S. aureus 43300 = assay: as above; assay type: cell-based
Procedure: as §4

E. faecalis 51299 = assay: as above; assay type: cell-based
Procedure: as §4

O[C@H]1[C@@H](O)CN2CCSC[C@@H]12 [Compound 8, 7(S)-8(R),9(S)-dihydroxy-hexahydro-1H-pyrrolo-[1,4]-thiazine]
β-ribosidase inhibition activity (in words) (β-ribosidase [1]; whole cell): no significant inhibition
β-ribosidase inhibition activity (in words) (β-ribosidase [2]; lysate): no significant inhibition
inhibition at 0.49 µg/mL (E. faecalis 29212; Enterococcus faecalis, 29212, 0.49 μg/ml, read-out: inhibition of bacterial growth): 50%
antibacterial activity (in words) (E. faecalis 29212; initial dilute concentration): good inhibition
inhibition at 0.49 µg/mL (S. aureus 43300; Staphylococcus aureus, 43300, 0.49 μg/ml, read-out: inhibition of bacterial growth): 70%
antibacterial activity (in words) (S. aureus 43300; initial dilute concentration): good inhibition
inhibition at 0.49 µg/mL (E. faecalis 51299; Enterococcus faecalis, 51299, 0.49 μg/ml, read-out: inhibition of bacterial growth): 50%
antibacterial activity (in words) (E. faecalis 51299; initial dilute concentration): good inhibition

O[C@H]1[C@@H](O)CN2c3ccccc3SC[C@@H]12 [Compound 6, 2(S),3(R),4(S)-dihydroxy-2,3,3a,4-tetrahydro-1H-pyrrolo-[2,1-c][1,4]benzothiazine]
concentration at which fifty percent inhibition was observed (β-ribosidase [1]; whole cell): 7.5 µg/µL
β-ribosidase inhibition activity (in words) (β-ribosidase [1]; whole cell): good inhibitory activity
inhibition of β-ribosidases (β-ribosidase [1]; whole cell, 15 μg/μL (67 mM), at 24 hours): About 70%
concentration at which fifty percent inhibition was observed (β-ribosidase [2]; lysate): 7.5 µg/µL
threshold value for the inhibitor concentration over which no inhibition is observed (β-ribosidase [2]): 0.9 µg/µL
inhibition of β-ribosidases (β-ribosidase [2]; lysate, 15 μg/μL (67 mM), at 24 hours): About 70%

O[C@@H]1[C@H]2CSc3ccccc3N2C[C@@H]1O [Compound 7, 2(R)-3(R),4(S)-dihydroxy-2,3,3a,4-tetrahydro-1H-pyrrolo-[2,1-c][1,4]benzothiazine]
β-ribosidase inhibition activity (in words) (β-ribosidase [1]; whole cell): comparable
inhibition at 3.8 μg/μL inhibitor concentration (β-ribosidase [1]; whole cells, 3.8 μg/μL): no inhibition
β-ribosidase inhibition activity (in words) (β-ribosidase [2]; lysate): comparable
threshold value for the inhibitor concentration over which no inhibition is observed (β-ribosidase [2]): 0.9 µg/µL
